US9248163B2, “Insulin-like growth factor binding protein 7 for treatment of cancer” (University of Massachusetts, priority 2007, dated 2016)

Legend:
[1] = tested on: SK-MEL-31 (wild type BRAF) tumors; assay: Tumor formation assay, SK-MEL-31 xenograft in nude mice; assay type: in vivo, athymic Balb/c (nu/nu) mice
Procedure: (§1) 5×10^6 SK-MEL-28 or SK-MEL-31 cells were suspended in 100 μl of serum-free DMEM and injected subcutaneously into the right flank of athymic Balb/c (nu/nu) mice (Taconic). Three, six, and nine days later, the mice were injected at the tumor site with either 20 μg of rIGBP7 in a total volume of 100 μl or, as a control, PBS. Tumor dimensions were measured every three days and tumor volume was calculated using the formula π/6×(length)×(width)^2. For the systemic administration experiments, 5×10^6 SK-MEL-28 or SK-MEL-31 cells were injected into the flanks of nude mice and when tumors reached a size of 100 mm3, 100 μg rIGFBP7 in a total volume of 100 μl was delivered by tail vein injection at days 6, 9, and 12. Tumor dimensions were measured every three days. Animal experiments were performed in accordance with the Institutional Animal Care and Use Committee (IACUC) guidelines.

[2] = tested on: SK-MEL-28 (BRAFV600E-positive) tumors; assay: Tumor formation assay, SK-MEL-28 xenograft in nude mice; assay type: in vivo, athymic Balb/c (nu/nu) mice
Procedure: as §1

[3] = tested on: primary melanocytes and SK-MEL-28 melanoma cells; assay: Quantitative real-time RT-PCR of the identified genes after rIGFBP7 addition; assay type: cell-based, human
Procedure: Total RNA was isolated using TRIZOL™ (Invitrogen) 7 days after retroviral transduction and puromycin selection. Reverse transcription was performed using SuperScript™ II Reverse Transcriptase (Invitrogen) as per the manufacturer's instructions, followed by quantitative real-time PCR using Platinum SYBR™ Green qPCR SuperMix-UDG with Rox (Invitrogen).
To understand the basis of this differential response, expression of the 17 identified genes was analyzed in primary melanocytes and BRAFV600E-positive SK-MEL-28 melanoma cells. […] PEA15, a known regulator of BRAF-MEK-ERK signaling (Formstecher et al., 2001, Dev. Cell, 1:239-250), is required for senescence (see FIG. 1F). Thus, the lack of PEA15 induction in IGFBP7-treated SK-MEL-28 cells can explain their failure to undergo senescence.

[4] = tested on: BRAF-MEK-ERK signaling in SK-MEL-28 cells; assay: Immunoblot analysis of BRAF-MEK-ERK signaling (phospho-ERK, activated MEK1/2, RKIP); assay type: cell-based, human
Procedure: (§2) To prepare cell extracts, cells were lysed in Laemmli buffer; for phospho-proteins, cells were lysed in the presence of a phosphatase inhibitor cocktail (Sigma). To prepare conditioned media, cells were grown in Opti-MEM™ (Invitrogen) for 24 hours, and media was harvested and concentrated using Centricon™ plus 20 tubes (Millipore). Conditioned media was normalized to cell number prior to loading the gel. For the experiments shown in FIGS. 3D and 4C, rIGFBP7 was added to the culture medium at a concentration of 10 μg/ml. For the MEK/RAF inhibitor experiment of FIG. 4D, SK-MEL-28 cells were treated with 2 μg/ml or 10 μg/ml rIGFBP7, 20 μM or 40 μM of the MEK inhibitor PD98054 (Calbiochem), or 5 nM or 10 nM the RAF inhibitor GW5074 (Sigma) for 24 hours prior to harvesting cells. Proteins were resolved by SDS-PAGE and transferred to nitrocellulose. Blots were probed with the following antibodies: α-p16 (Abcam), α-acetylated H3K9 (Upstate), α-IGFBP7 (Santa Cruz), α-SMARCB1 (Abnova), α-BNIP3L (Proscience), α-BRAFV600E (Santa Cruz), α-cleaved caspase-3 p11 (Santa Cruz), α-β-actin (Sigma), α-phospho-ERK (Cell Signaling) or α-ERK (Cell Signaling).
To test this idea, rIGFBP7 was added to BRAFV600E-positive SK-MEL-28 melanoma cells, and the levels of total and activated ERK (phospho-ERK) were analyzed.

[5] = tested on: SK-MEL-28 cells; assay: ChIP assays 24 hours following rIGFBP7 treatment; assay type: cell-based, human
Procedure: Chromatin immunoprecipitation (ChIP) assays were performed using extracts prepared 24 hours following rIGFBP7 treatment. The following antibodies were used: α-BRG1 (de La Serna et al., 2000, Mol. Cell. Biol., 20:2839-51), α-phospho-STAT1 (Upstate), and α-SMARCB1 and α-STAT1 (Santa Cruz). For ChIP experiments on the SMARCB1 promoter, primers spanning a STAT1 binding site located ˜2.4 kb upstream of the transcription start-site were used. For ChIP experiments on the BNIP3L promoter, a series of primer-pairs that covered ˜2 kb of the BNIP3L promoter were used; following addition of rIGFBP7, SMARCB1 and BRG1 were recruited to the BNIP3L promoter near the transcription start-site. ChIP products were analyzed by quantitative real-time PCR using Platinum SYBR™ Green qPCR SuperMix-UDG with Rox (Invitrogen). Calculation of fold differences was done as previously described (Pfaffl, 2001, Nucleic Acids Res., 29:e45).

[6] = tested on: SK-MEL-28 cells; assay: Immunoblot analysis of SMARCB1, BNIP3L and activated caspase 3; assay type: cell-based, human; details: 10 μg/ml
Procedure: as §2

[7] = injected at the tumor site, 20 μg, days 3, 6 and 9
[8] = systemic, 100 μg by tail vein injection at days 6, 9 and 12

rIGFBP7: purified recombinant human IGFBP7, C-terminal Flag-tagged, from baculovirus-infected Sf9 insect cells
tumor growth [1, 7]: no effect
tumor growth [1, 8]: unaffected
tumor growth [2, 7]: substantially suppressed growth
TUNEL labeling of tumors ([2]; mice treated with rIGFBP7): positive
tumor growth [2, 8]: completely suppressed growth
suppression of tumor growth, dose dependence ([2]; systemic, 2, 20, 50, 100 or 250 μg, tumor volume at day 21): dose-dependent
adverse effects ([2]; systemic, concentrations higher than required for inhibition of tumor growth): without apparent adverse effects
upregulation of IGFBP7 and PEA15 ([3]; SK-MEL-28 cells): neither IGFBP7 nor PEA15 were upregulated
induction of the seven BRAFV600E-upregulated genes ([3]; melanocytes, IGFBP7 being the exception): six of the seven genes were induced
BNIP3L upregulation ([3]; primary melanocytes): only modestly upregulated
growth factor-induced ERK activation [4]: blocked
RAF inhibitory protein (RKIP) expression ([4]; SK-MEL-28 cells): upregulation
levels of activated MEK1/2 ([4]; SK-MEL-28 cells): decreased levels
phospho-ERK level ([4]; SK-MEL-28 cells, 24 hours, 0.2-10 μg/ml): dose-dependent loss of phospho-ERK
STAT1 recruitment to the SMARCB1 promoter ([5]; SK-MEL-28 cells): recruited
SMARCB1 and BRG1 recruitment to the BNIP3L promoter ([5]; near the transcription start-site): recruited
apoptosis by caspase 3 activation [6]: apoptosis occurred as evidenced by caspase 3 activation
expression of SMARCB1 and BNIP3L [6]: significantly increased
